Reference: ChEMBL document CHEMBL1201862, “PubChem BioAssay data set” (2004)
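96-well plates; 48 h exposure; 5 concentrations. Endpoints by linear interpolation between flanking doses. Not reached: highest tested concentration assigned. GI50: concentration for 50% inhibition of growth.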 The source made the active and inactive calls. Cut-off read from the data, not from the text of the source: active = GI50 up to about 1.1 µM and inactive = higher.

Legend:
Test in all cases: DTP human tumour cell line panel, 48 h
ACHN = test system: ACHN
U-251 = test system: U-251
COLO 205 = test system: COLO 205
DMS-114 = test system: DMS-114
TK-10 = test system: TK-10
UO-31 = test system: UO-31
M14 = test system: M14
HCC 2998 = test system: HCC 2998
RXF 393 = test system: RXF 393
IGROV-1 = test system: IGROV-1
SK-MEL-28 = test system: SK-MEL-28
786-0 = test system: 786-0
OVCAR-4 = test system: OVCAR-4
A498 = test system: A498
HOP-62 = test system: HOP-62
CAKI-1 = test system: CAKI-1
UACC-62 = test system: UACC-62
NCI/ADR-RES = test system: NCI/ADR-RES
EKVX = test system: EKVX
MDA-MB-435 = test system: MDA-MB-435

Structure (SMILES)	GI50 (ACHN)	GI50 (U-251)	GI50 (COLO 205)	GI50 (DMS-114)	GI50 (TK-10)	GI50 (UO-31)	GI50 (M14)	GI50 (HCC 2998)	GI50 (RXF 393)	GI50 (IGROV-1)	GI50 (SK-MEL-28)	GI50 (786-0)	GI50 (OVCAR-4)	GI50 (A498)	GI50 (HOP-62)	GI50 (CAKI-1)	GI50 (UACC-62)	GI50 (NCI/ADR-RES)	GI50 (EKVX)	GI50 (MDA-MB-435)
CC(=O)Nc1ccc(-c2nnc(SCC(=O)Nc3ccccc3Cl)o2)cc1	> 100 µM (inactive)	> 100 µM (inactive)	> 100 µM (inactive)	> 100 µM (inactive)	> 100 µM (inactive)	> 100 µM (inactive)	> 100 µM (inactive)	> 100 µM (inactive)	> 100 µM (inactive)	> 100 µM (inactive)	> 100 µM (inactive)	> 100 µM (inactive)	> 100 µM (inactive)	> 100 µM (inactive)	> 100 µM (inactive)	> 100 µM (inactive)	–	–	–	–
COC1/C=C\C=C(/C)C(=O)NC2=CC(=O)C(NCCCl)=C(CC(C)CC(OC)C(O)C(C)/C=C(/C)C1OC(N)=O)C2=O (configuration not stated)	0.281 µM (active)	0.11 µM (active)	< 0.0126 µM (active)	0.0296 µM (active)	1.77 µM (inactive)	0.728 µM (active)	0.0724 µM (active)	0.101 µM (active)	0.0174 µM (active)	0.499 µM (active)	0.0373 µM (active)	0.323 µM (active)	2.54 µM (inactive)	0.873 µM (active)	0.339 µM (active)	0.33 µM (active)	0.0405 µM (active)	10.6 µM (inactive)	0.592 µM (active)	0.0526 µM (active)
O=c1[c-](-c2ccccc2)[se]c(-c2ccccc2)[n+]1-c1ccccc1	–	–	15.5 µM (inactive)	4.69 µM (inactive)	8.32 µM (inactive)	3.08 µM (inactive)	4.99 µM (inactive)	6.35 µM (inactive)	3.18 µM (inactive)	3.71 µM (inactive)	9.31 µM (inactive)	10.5 µM (inactive)	2.35 µM (inactive)	10 µM (inactive)	–	19.1 µM (inactive)	13 µM (inactive)	–	13.5 µM (inactive)	–
Cc1cccc2nc3cccc(C(=O)NCCN(C)C)c3nc12	0.41 µM (active)	0.492 µM (active)	0.443 µM (active)	1.06 µM (active)	0.433 µM (active)	0.239 µM (active)	0.766 µM (active)	1.04 µM (active)	1.03 µM (active)	0.525 µM (active)	1.01 µM (active)	0.647 µM (active)	0.83 µM (active)	0.266 µM (active)	0.247 µM (active)	0.482 µM (active)	0.644 µM (active)	–	0.443 µM (active)	–
COC(=O)C1=C(c2ccc3c(c2)OCO3)O[C@H](c2ccc3c(c2)OCO3)[C@H]1COC(C)=O	29.4 µM (inactive)	53 µM (inactive)	15.3 µM (inactive)	57.9 µM (inactive)	46.7 µM (inactive)	38.7 µM (inactive)	32.6 µM (inactive)	35.7 µM (inactive)	40 µM (inactive)	63.5 µM (inactive)	65 µM (inactive)	36.2 µM (inactive)	36.6 µM (inactive)	24.6 µM (inactive)	58.5 µM (inactive)	27.5 µM (inactive)	38.6 µM (inactive)	–	59 µM (inactive)	–
CSc1s[s+]c(SC)c1[O-]	38.4 µM (inactive)	26.7 µM (inactive)	27.2 µM (inactive)	17.5 µM (inactive)	> 100 µM (inactive)	> 100 µM (inactive)	17.5 µM (inactive)	> 100 µM (inactive)	21.2 µM (inactive)	83.6 µM (inactive)	17.1 µM (inactive)	16.5 µM (inactive)	51.2 µM (inactive)	> 100 µM (inactive)	> 100 µM (inactive)	20.7 µM (inactive)	14.4 µM (inactive)	–	75.7 µM (inactive)	–
NC1=NN(c2ccccc2)C(=O)C1/C(=N\NC(=O)c1cc2ccccc2cc1O)C(=O)Nc1ccc(Cl)c(Cl)c1 (configuration not stated)	28.3 µM (inactive)	33 µM (inactive)	18.9 µM (inactive)	25.2 µM (inactive)	55.6 µM (inactive)	17.6 µM (inactive)	19.6 µM (inactive)	43 µM (inactive)	49.2 µM (inactive)	28.4 µM (inactive)	83.4 µM (inactive)	31.3 µM (inactive)	16.3 µM (inactive)	49.8 µM (inactive)	65.2 µM (inactive)	54.5 µM (inactive)	17.7 µM (inactive)	–	14.4 µM (inactive)	–
O=C1C=C(Nc2ccc(Br)cc2)c2ccccc2C1=O	4.75 µM (inactive)	4 µM (inactive)	17 µM (inactive)	4.65 µM (inactive)	19.6 µM (inactive)	16 µM (inactive)	14.9 µM (inactive)	15 µM (inactive)	16.7 µM (inactive)	14.8 µM (inactive)	17.2 µM (inactive)	14.6 µM (inactive)	2.09 µM (inactive)	17.2 µM (inactive)	16.9 µM (inactive)	–	4.39 µM (inactive)	–	18.5 µM (inactive)	–
CO[C@@H]1[C@H](OC(=O)NC(=O)CCl)CC[C@]2(CO2)[C@H]1[C@@]1(C)O[C@@H]1CC=C(C)C [O-CHLOROACETYLCARBAMOYLFUMAGILLOL]	14.1 µM (inactive)	3.08 µM (inactive)	14.2 µM (inactive)	7.03 µM (inactive)	18.3 µM (inactive)	9.89 µM (inactive)	5.51 µM (inactive)	5.81 µM (inactive)	8.36 µM (inactive)	12.2 µM (inactive)	12.8 µM (inactive)	12.6 µM (inactive)	14.4 µM (inactive)	17.2 µM (inactive)	12.9 µM (inactive)	11 µM (inactive)	12 µM (inactive)	16 µM (inactive)	14.1 µM (inactive)	11.7 µM (inactive)
Cc1cc2c(cc1C)[n+]([O-])c(C(=O)C/C(=N/NC(=O)CC#N)C(=O)Nc1ccccc1C(F)(F)F)c(C)[n+]2[O-]	29.7 µM (inactive)	49.5 µM (inactive)	46.1 µM (inactive)	28.6 µM (inactive)	> 100 µM (inactive)	–	44.2 µM (inactive)	65.5 µM (inactive)	77.1 µM (inactive)	> 100 µM (inactive)	70.8 µM (inactive)	52.8 µM (inactive)	44 µM (inactive)	52 µM (inactive)	> 100 µM (inactive)	57.7 µM (inactive)	34 µM (inactive)	–	53.1 µM (inactive)	–
